Patent publication US7169604B1, “Method for PR-39 peptide mediated selective inhibition of IκBα degradation” (Beth Israel Deaconess Medical Center, priority 1998, dated 2007)
Ends that are not written are not given here.

Columns and labels:
[1] = target: T1, α7 subunit of the 20S proteasome (Mus musculus, UniProt O70435); test: Yeast two-hybrid binding of PR-39 to α7 and its fragments; settings: growth of lacZ+ colonies on selective medium; deletion mutants of mouse α7
T1 construct: made in house; host or cells: yeast (Y190 for the screen, CG1945 for the deletion analysis)
T1 sequence (O70435 1-255): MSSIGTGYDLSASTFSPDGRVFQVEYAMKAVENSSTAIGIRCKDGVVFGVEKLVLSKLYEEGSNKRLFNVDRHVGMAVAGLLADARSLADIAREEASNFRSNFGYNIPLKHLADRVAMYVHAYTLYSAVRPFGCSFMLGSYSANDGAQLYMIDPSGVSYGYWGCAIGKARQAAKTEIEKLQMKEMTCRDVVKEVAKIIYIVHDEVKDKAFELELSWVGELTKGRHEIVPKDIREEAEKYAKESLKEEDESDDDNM
Description: Two-hybrid screening was done using Clontech MATCHMAKER GAL4 System 2 (Clontech). cDNA of porcine PR39 peptide corresponding to the 4th exon (amino acids 131 to 169) was subcloned into pAS2-1 vector as bait. Mouse embryo 3T3 MATCHMAKER cDNA library (Clontech) was screened in the yeast Y190 strain. Plasmids from HIS3/LacZ positive clones were sequenced and co-transformed with bait plasmid back into the Y190 strain to confirm the interaction.
To identify possible intracellular targets of PR-39 peptide action, a yeast two-hybrid screen of mouse CDNA library was performed using the unique 4th exon DNA sequence of porcine PR-39 gene as “bait”. […] All four clones encoded overlapping identical cDNA sequences which are highly homologous to the sequence of the human α7 (HC8) subunit of the 20S proteasome (GeneBank accession AF055983).
Deletion mutants of the mouse α7 subunit were cloned into yeast two-hybrid vector, and the extent of growth of lacZ+ colonies on selective medium following co-transformation with PR-39 construct in the yeast CG1945 was determined.

IκBα [2] = test: IκBα protein levels in ECV304 cells by Western blotting; assay type: cell-based, human; settings: ECV cells, 2 hr exposure, 100 or 50 nM
Experimental: For IκBα expression studies, normally proliferating wild type ECV304 cells (ECV) or ECV-PR-39 and ECV-E4 cells were lysed in the loading buffer, subjected to electrophoresis on 10% SDS-PAGE gel and transferred to a PVDF membrane. IκBα expression was then determined by Western blotting with anti-IκBα antibody (Santa Cruz, Inc.). ECV304 cells treated for 2 hr with 10 μM of lactacystin (LC) were used as control.
Western blotting of ECV cell lysate was carried out following 2 hr exposure to buffer (0) or 100 or 50 nM of PR-39. […] Clearly, exposure of wild type ECV304 cells to the synthetic PR-39 peptide led to a dose-dependent increase in IκBα levels.

NFκB = NFκB electromobility shift assay in mouse pancreas, caerulein-induced pancreatitis; assay type: in vivo; settings: 10 mg/kg i.v. 1 hour before caerulein; 30 min later
IκBα [3] = test: IκBα ubiquitination in HA-Ub expressing ECV304 cells; assay type: cell-based, human; settings: 10 μM pretreatment, TNF-α 1 ng/ml
Experimental: ECV304 cells were stably transfected with a HA-tagged ubiquitin plasmid MT123 (kind gift of Dr. G. Walz, BIDMC). The clone with the highest expression of HA-ubiquitin was treated with 10 μM PR39 for 45 min followed by treatment with 1 ng/ml TNFα for 20 min. At that point, the cells were washed and lysed and IκBα was immunoprecipitated. Following SDS-PAGE and membrane transfer of the immunoprecipitated material, the HA-ubiquitinated IκBα was visualized by Western blotting with an anti-HA antibody (Santa Cruz).
To assess the effect of PR-39 peptide treatment on IκBα ubiquitination in intact cells, a stable ECV304-derived cell line expressing HA-tagged ubiquitin was generated. […] HA-Ub expressing ECV304 cells were exposed to 1 ng/ml TNF-α in the presence (+) or absence (−) of 10 μM PR-39 pretreatment. 45 min later the cells were lysed and subjected to IκBα immunoprecipitation followed by Western blotting of the pellet material with anti-HA antibody. Note the presence of multiple ubiquitinated IκBα intermediaries in PR-39 peptide treated cells but not in control cells.

RRRPRPPYLPRPRPPPFFPPRLPPRIPPGFPPRFPPRFP [PR-39]
binding of PR-39 to α7 and its fragments [1]: only the full length a7 construct was able to bind to PR-39
IκBα protein levels (IκBα [2]): dose-dependent increase in IκBα protein levels
NFκB gel shift in mouse pancreas (NFκB): almost complete disappearance of NFκB gel shift
ubiquitinated IκBα in cells (IκBα [3]): accumulation of more ubiquitinated IκBα complexes
